The source of these data is publication PMC2587278 (Antioxidants & redox signaling, 2008).

Molecules are shown by their SMILES.

This assay deals with T1, zebrafish Ape1 (zApe1) (Danio rerio, UniProt A0MTA1, T58C).
T1 sequence (A0MTA1 1-310 T58C): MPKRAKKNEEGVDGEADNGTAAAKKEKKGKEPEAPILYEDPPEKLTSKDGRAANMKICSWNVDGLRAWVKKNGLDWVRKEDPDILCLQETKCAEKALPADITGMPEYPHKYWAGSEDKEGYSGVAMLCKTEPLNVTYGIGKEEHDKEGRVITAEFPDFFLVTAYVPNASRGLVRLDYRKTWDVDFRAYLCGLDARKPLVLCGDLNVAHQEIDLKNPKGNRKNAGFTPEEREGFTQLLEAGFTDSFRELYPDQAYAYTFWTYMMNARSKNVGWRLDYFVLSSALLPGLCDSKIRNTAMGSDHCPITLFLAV
In words: redox EMSA: Ape1-stimulated AP-1 DNA binding, HEX-labelled oligonucleotide. Format: biochemical. A general note: In EMSA bound probe runs differently from free probe, usually more slowly.

As usually defined, the IC50 is the concentration that gives 50% inhibition. Read a high IC50 as lower potency. Take `CCCCCCCCC/C(=C\C1=C(C)C(=O)C(OC)=C(OC)C1=O)C(=O)O` [compound 5, (E)-3-(4,5-dimethoxy-2-methyl-3,6-dioxocyclohexa-1,4-dienyl)-2-nonylpropenoic acid]: the half-maximal inhibitory concentration (IC50) is 5 µM.
